Measurements from patent US10760052B2, “Method of inhibiting tau phosphorylation” (priority 2012, dated 2020).
“And” between values parts separate entries of the source, which are not always exact repeats. Equal entries are not always repeated. Where two headings read alike, the source gives them in different places.

Tests used:
α7nAChR-FLNA complex [1] = target: T1, α7nAChR-FLNA complex (Rattus norvegicus, UniProt A0A8I5ZV49); experiment: Aβ42-induced α7nAChR-FLNA association in rat frontal cortical synaptosomes (co-immunoprecipitation/Western blot); format: cell-based; conditions: 1 or 10 nM compound, simultaneously or 10 minutes prior to Aβ42 (0.1 μM)
T1 construct: from tissue; host or cells: rat frontal cortex synaptosomes
Description: The α7nAChR-FLNA complexes in the solubilized synaptosomes were immunoprecipitated with immobilized anti-FLNA and the α7nAChR and FLNA levels in the anti-FLNA immunoprecipitates determined by Western blotting (FIG. 2A) and quantified by densitometry (FIG. 2B). n=3. […] The letter designation “M” that accompanies many of the “C-series” compounds is omitted from FIG. 2, the remaining figures and most discussions of the figures and compounds hereinafter for ease in expression. Structural formulas of the compounds used in this and the other figures are provided hereinafter. […]

[2] = tested on: tau protein phosphorylated at S202, T231 and T181; experiment: Aβ42-induced tau phosphorylation in rat frontal cortical synaptosomes; format: cell-based; conditions: 1 or 10 nM compound, simultaneously or 10-minute pretreatment; Aβ42 0.1 μM
Description: FIG. 4 in four panels as FIGS. 4A-4D, illustrates that FLNA-binding compounds reduce tau phosphorylation at all three phosphorylation sites. […] The three phosphoepitopes of tau were detected in immunoprecipitates using specific antibodies. […] Immunoprecipitates were determined by Western blotting (FIGS. 4A-4C) and quantified by densitometry (FIG. 4D).
(§1) FIG. 42, also in two panels, FIGS. 42A and 42B, illustrates that FLNA-binding compounds reduce tau phosphorylation at all three phosphorylation sites using the compounds and concentrations of FIG. 41 using immunoprecipitation and Western blotting. […] The three phosphoepitopes of tau were detected in immunoprecipitates using specific antibodies.
as §1, with “44,” for “42,”, “FIG. 44A” for “FIGS. 42A”, “FIG. 44B,” for “42B,”, “43” for “41”, “antibodies. Aβ42 strongly promotes tau phosphorylation at all three sites.” for “antibodies.”
as §1, with “46,” for “42,”, “FIG. 46A” for “FIGS. 42A”, “FIG. 46B,” for “42B,”, “45” for “41”, “antibodies. Aβ42 strongly promotes tau phosphorylation at all three sites.” for “antibodies.”
The three primary phosphorylation sites on tau protein were examined for their phosphorylation levels compared to total tau protein content. Tau, phosphorylated at these three sites, is a constituent of NFTs. Consistent with effects on FLNA-α7nAChR association, and ERK2 activation, all of the FLNA-binding compounds assayed, with 10 minute pre-incubation, decreased Aβ42-induced phosphorylation of tau at all three sites (FIG. 4).

α7nAChR-FLNA complex [3] = target: T2, α7nAChR-FLNA complex (Homo sapiens, UniProt P36544); format: cell-based
T2 construct: In postmortem control frontocortical tissue, Aβ42-induced FLNA recruitment to α7nAChRs was mimicked; from tissue; host or cells: postmortem frontal cortex of control subjects
Description: Incubation continued for 1 hour in the dark. […] The reaction was terminated by the addition of 1.5 ml of ice-cold Ca^2+-free K-R, and slices were collected by a brief centrifugation.
Solubilized immunoprecipitates derived from co-immunoprecipitation assays were separated by either 7.5 or 10% SDS-PAGE and then electrophoretically transferred to nitrocellulose membranes. The membranes were washed with PBS and blocked overnight (about 18 hours) at 4° C. with 10% milk in PBS with 0.1% Tween®-20 (PBST). Following three 5-minute washes with 0.1% PBST, the membranes were incubated at room temperature for 2 hours with antibody of choice at 1:500-1:1,000 dilutions. After three 2-minute washes in 0.1% PBST, membranes were incubated for 1 hour with anti-species IgG-HRP (1:5,000 dilution) and washed with 0.1% PBST three times, 2-minutes each. Immunoreactivity was visualized by reacting with chemiluminescent reagent (Pierce-ENDOGEN) for exactly 5 minutes and immediately exposing to X-ray film. Specific bands were quantified by densitometric scanning (GS-800 calibrated densitometer, Bio-Rad Laboratories).

[4] = target: VAKGL pentapeptide of filamin A (FLNA) of SEQ ID NO: 1 (Homo sapiens, UniProt P21333); experiment: FITC-NLX-based FLNA screening assay (inhibition of FITC-naloxone binding to Bn-VAKGL on streptavidin plates)
[5] = 1 μM agent, relative to 0.1 μM Aβ42

T1 sequence (A0A8I5ZV49 entry or part of it, one chain of several): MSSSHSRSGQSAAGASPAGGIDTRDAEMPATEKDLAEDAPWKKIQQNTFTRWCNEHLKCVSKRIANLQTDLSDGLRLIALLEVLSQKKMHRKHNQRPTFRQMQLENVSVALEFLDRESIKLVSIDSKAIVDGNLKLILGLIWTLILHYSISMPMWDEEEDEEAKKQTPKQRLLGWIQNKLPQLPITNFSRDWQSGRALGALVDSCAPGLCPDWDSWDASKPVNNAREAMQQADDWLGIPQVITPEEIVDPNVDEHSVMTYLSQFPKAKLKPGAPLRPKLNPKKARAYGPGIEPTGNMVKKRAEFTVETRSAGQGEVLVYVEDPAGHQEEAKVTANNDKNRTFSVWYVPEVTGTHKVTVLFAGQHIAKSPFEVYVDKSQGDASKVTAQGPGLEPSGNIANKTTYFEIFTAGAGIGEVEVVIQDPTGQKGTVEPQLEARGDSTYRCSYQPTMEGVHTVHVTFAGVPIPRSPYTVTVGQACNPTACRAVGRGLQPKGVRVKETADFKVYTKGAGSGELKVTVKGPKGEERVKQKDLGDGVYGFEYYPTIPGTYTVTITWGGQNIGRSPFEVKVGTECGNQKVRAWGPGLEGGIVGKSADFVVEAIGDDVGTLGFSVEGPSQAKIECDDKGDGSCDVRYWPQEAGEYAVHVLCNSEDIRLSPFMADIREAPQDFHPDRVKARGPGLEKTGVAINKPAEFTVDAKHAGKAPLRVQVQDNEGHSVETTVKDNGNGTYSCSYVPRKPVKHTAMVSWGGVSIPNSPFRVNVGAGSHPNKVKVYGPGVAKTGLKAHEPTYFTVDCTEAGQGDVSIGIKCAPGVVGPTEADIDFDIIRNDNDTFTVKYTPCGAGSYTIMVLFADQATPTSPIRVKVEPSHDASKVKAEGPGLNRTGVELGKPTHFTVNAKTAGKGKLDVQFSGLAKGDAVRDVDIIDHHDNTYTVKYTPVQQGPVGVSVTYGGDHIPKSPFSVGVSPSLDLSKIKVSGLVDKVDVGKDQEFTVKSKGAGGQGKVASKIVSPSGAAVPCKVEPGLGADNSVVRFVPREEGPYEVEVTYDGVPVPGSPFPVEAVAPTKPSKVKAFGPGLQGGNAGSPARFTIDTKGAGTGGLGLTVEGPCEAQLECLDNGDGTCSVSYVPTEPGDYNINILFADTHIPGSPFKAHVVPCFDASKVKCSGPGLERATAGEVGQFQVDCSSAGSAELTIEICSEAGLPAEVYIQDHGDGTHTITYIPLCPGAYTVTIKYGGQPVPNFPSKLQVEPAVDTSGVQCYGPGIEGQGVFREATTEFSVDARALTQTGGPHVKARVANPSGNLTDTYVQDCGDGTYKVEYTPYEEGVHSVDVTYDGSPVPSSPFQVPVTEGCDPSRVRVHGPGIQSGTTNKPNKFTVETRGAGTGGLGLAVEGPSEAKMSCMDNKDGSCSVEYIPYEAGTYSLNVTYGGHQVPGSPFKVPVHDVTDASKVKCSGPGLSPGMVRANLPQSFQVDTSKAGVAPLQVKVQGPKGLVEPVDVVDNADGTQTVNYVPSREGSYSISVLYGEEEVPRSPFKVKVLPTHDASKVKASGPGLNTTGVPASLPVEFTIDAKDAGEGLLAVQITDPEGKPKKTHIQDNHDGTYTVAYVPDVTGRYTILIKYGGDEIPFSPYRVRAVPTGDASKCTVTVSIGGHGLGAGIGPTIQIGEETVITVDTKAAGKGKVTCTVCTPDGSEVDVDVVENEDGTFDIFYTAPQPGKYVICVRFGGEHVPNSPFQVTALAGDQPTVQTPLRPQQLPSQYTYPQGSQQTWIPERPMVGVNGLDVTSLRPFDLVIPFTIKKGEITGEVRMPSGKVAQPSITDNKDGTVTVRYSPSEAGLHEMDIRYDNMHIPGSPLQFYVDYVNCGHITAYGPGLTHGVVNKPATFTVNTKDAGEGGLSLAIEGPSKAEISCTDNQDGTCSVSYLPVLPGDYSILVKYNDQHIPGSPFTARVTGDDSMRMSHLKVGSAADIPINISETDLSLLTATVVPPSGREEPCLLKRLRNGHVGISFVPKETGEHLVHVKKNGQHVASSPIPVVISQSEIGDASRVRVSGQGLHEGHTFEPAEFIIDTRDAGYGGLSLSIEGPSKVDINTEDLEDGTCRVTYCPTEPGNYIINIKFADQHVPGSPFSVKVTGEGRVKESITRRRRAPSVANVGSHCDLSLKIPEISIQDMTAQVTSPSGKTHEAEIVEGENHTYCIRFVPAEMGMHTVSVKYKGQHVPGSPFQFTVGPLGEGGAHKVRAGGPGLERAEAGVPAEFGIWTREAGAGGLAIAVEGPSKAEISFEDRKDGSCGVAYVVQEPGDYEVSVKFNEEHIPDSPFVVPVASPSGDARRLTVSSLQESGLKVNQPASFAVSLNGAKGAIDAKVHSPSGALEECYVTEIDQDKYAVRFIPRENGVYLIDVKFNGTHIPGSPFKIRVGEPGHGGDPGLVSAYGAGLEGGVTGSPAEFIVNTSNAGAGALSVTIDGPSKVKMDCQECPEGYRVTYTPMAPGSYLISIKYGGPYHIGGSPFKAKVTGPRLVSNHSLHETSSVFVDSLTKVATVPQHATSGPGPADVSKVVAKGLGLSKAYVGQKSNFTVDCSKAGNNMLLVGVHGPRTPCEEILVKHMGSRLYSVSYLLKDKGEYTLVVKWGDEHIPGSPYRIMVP
T2 sequence (P36544 23-502, one chain of several): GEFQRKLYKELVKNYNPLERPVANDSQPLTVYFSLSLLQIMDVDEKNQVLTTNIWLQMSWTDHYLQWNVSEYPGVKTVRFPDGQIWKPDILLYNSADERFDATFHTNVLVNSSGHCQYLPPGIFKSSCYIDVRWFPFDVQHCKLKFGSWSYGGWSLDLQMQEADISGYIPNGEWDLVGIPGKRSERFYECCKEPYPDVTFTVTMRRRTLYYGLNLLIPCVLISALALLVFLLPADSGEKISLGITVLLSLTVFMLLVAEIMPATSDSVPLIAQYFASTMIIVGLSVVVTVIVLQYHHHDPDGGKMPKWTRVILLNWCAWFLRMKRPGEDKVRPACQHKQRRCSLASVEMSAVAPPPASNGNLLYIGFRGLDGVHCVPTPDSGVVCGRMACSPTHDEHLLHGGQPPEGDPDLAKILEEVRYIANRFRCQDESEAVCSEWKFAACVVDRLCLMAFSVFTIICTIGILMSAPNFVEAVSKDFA

Compound | α7nAChR-FLNA association (ratio α7nAChR/FLNA) (α7nAChR-FLNA complex [1]) | Aβ42 effect, % (α7nAChR-FLNA complex [3]) [%] | FLNA/α7nAChR ratio (α7nAChR-FLNA complex [3]) | FLNA/α7nAChR ratio (stimulation vs vehicle, %) (α7nAChR-FLNA complex [3]) | further results
CC(=O)c1ccc(S(=O)(=O)N2CC(CN(C)C)OC23CCN(C)CC3)cc1 (centres unmarked) [Compound C0108] | reduce α7nAChR-FLNA association | – | – | – | –
O=C1CNC2(CCN(CC3CC3)CC2)N1Cc1ccccc1 [Compound C0124] | reduce α7nAChR-FLNA association | – | – | – | Aβ42-induced tau phosphorylation at S202, T231 and T181 [2]: reduced this phosphorylation at both concentrations
Cc1ccc(S(=O)(=O)N2CCOC23CCN(CC2CC2)CC3)cc1 [Compound C0134] | statistically different from Aβ42 alone | – | – | – | –
O=C(Nc1ccccc1)N1CCC2(CC1)NCC(=O)N2Cc1ccccc1 [Compound C] | statistically different from Aβ42 alone | – | – | – | Aβ42-induced tau phosphorylation at S202, T231 and T181 [2]: did not provide a statistically significant result at two phosphorylation positions when simultaneously administered
COc1ccc2c3c1O[C@H]1C[C@@H](O)C=C[C@@]31CCN(C)C2 [Galantamine, galantamine] | – | – | – | – | FLNA/α7nAChR ratio (stimulation vs vehicle, %) (α7nAChR-FLNA complex [3]; 1 μM agent): (17.1 ± 14.6) %; Aβ42 effect, % (α7nAChR-FLNA complex [3]; [5]): 1.7 ± 1.5%
CC12CC3CC(C)(C1)CC(N)(C3)C2 [Memantine, memantine] | – | – | – | – | FLNA/α7nAChR ratio (stimulation vs vehicle, %) (α7nAChR-FLNA complex [3]; 1 μM agent): (225.9 ± 38.5) %; FLNA/α7nAChR ratio (α7nAChR-FLNA complex [3]; 1 μM agent, postmortem control frontocortical tissue): 0.21 ± 0.03; Aβ42 effect, % (α7nAChR-FLNA complex [3]; [5]): 23.0 ± 3.9%; FLNA recruitment to α7nAChRs (in words) (α7nAChR-FLNA complex [3]; postmortem control frontocortical tissue): elicited the recruitment of FLNA to α7nAChRs
CCN1C[C@]2(COC(=O)c3ccccc3N3C(=O)C[C@H](C)C3=O)CC[C@H](OC)[C@@]34[C@@H]5C[C@H]6[C@H](OC)[C@@H]5[C@](O)(C[C@@H]6OC)[C@@](O)([C@@H](OC)[C@H]23)[C@@H]14 [Methyllycaconitine, methyllycaconitine] | – | 2.0 ± 1.2 | 0.08 ± 0.02 | (19.8 ± 12.2) % | FLNA recruitment to α7nAChRs (in words) (α7nAChR-FLNA complex [3]): showed no effect
C=CCN1CC[C@]23c4c5ccc(O)c4O[C@H]2C(=O)CC[C@@]3(O)[C@H]1C5 [Naloxone, naloxone] | – | – | – | – | Percent Binding Inhibition (FITC-NLX binding) [4]: 39.87% and 46.29% and 50.91%
CN1CCCC1c1cccnc1 (centres unmarked) [Nicotine, nicotine] | – | 11.0 ± 3.2 | 0.13 ± 0.02 | (107.7 ± 31.4) % | –
O=C(N[C@H]1CN2CCC1CC2)c1ccc(Cl)cc1 [PNU282987] | – | 8.9 ± 3.9 | 0.12 ± 0.02 | (87.1 ± 37.9) % | –
